# Read-outs that look alike come from different tables or passages of the source.
# Columns and labels:
# [1] = test system: clinical P. aeruginosa isolates; test: microbe, parasite or virus in culture; settings: Pseudomonas aeruginosa, 18 h, antibiotic alone
# Procedure, shortened: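 Broth microdilution per CLSI in MHB, two-fold drug dilutions mixed with an equal volume of bacteria at about 1 × 10^6 CFU/mL. After 18 h at 37 °C, MIC taken as the lowest concentration with no visible growth; run in triplicate.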
# P. aeruginosa AUMC-Pa-2 = settings: strain AUMC-Pa-2; antibiotic + D-11 (MICb/MICbc 64/4)
# Procedure, shortened: (§1)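 Broth microdilution per CLSI in MHB: two-fold drug dilutions mixed with an equal volume of bacterial suspension at approximately 1 × 10^6 CFU/mL, incubated 18 h at 37 °C. MIC was the lowest concentration with no visible growth; triplicate runs.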
# P. aeruginosa AUMC-Pa-1 = settings: strain AUMC-Pa-1; antibiotic + D-11 (MICb/MICbc 128/4)
# Procedure, shortened: as §1
# P. aeruginosa PAO1 = test: microbe, parasite or virus in culture; settings: PAO1; for FICI / MICac: the MIC for the antibiotic in the combination: S3 Table
# Procedure, shortened: as §1
# P. aeruginosa AUMC-Pa-6 = test: microbe, parasite or virus in culture
# Procedure, shortened: as §1
# P. aeruginosa AUMC-Pa-3 = test: microbe, parasite or virus in culture
# Procedure, shortened: as §1
# P. aeruginosa AUMC-Pa-4 = test: microbe, parasite or virus in culture
# Procedure, shortened: as §1
# P. aeruginosa AUMC-Pa-5 = test: microbe, parasite or virus in culture
# Procedure, shortened: as §1
# P. aeruginosa HM-214 = settings: strain HM-214; antibiotic + D-11 (MICb/MICbc 128/4)
# Procedure, shortened: as §1
# P. aeruginosa ATCC27853 = test: microbe, parasite or virus in culture; set-up: MICa: MIC of the antibiotic / MICac: MIC of the antibiotic in the combination: unit not given beside the values
# Procedure, shortened: as §1
# P. aeruginosa NR-31041 = test: microbe, parasite or virus in culture; set-up: MICa: MIC of the antibiotic / MICac: MIC of the antibiotic in the combination: unit not given beside the values
# Procedure, shortened: as §1
# P. aeruginosa PA14 = test: microbe, parasite or virus in culture; set-up: MICa: MIC of the antibiotic / MICac: MIC of the antibiotic in the combination: unit not given beside the values
# Procedure, shortened: as §1
# P. aeruginosa PAK = test: microbe, parasite or virus in culture; set-up: MICa: MIC of the antibiotic / MICac: MIC of the antibiotic in the combination: unit not given beside the values
# Procedure, shortened: as §1
# P. aeruginosa NR-31040 = test: microbe, parasite or virus in culture; set-up: MICa: MIC of the antibiotic / MICac: MIC of the antibiotic in the combination: unit not given beside the values
# Procedure, shortened: as §1
structure (smiles),measurement,setting,value
COc1cc(Cc2cnc(N)nc2N)cc(OC)c1OC [Trimethoprim],MIC,"[1]; read-out: Antibiotic sensibility (MIC) of clinical P. aeruginosa isolate AUMC-Pa-1, strain AUMC-Pa-1",> 128 µM
same,MIC,"[1]; read-out: Antibiotic sensibility (MIC) of clinical P. aeruginosa isolate AUMC-Pa-2, strain AUMC-Pa-2",> 128 µM
same,MIC,"[1]; read-out: Antibiotic sensibility (MIC) of clinical P. aeruginosa isolate AUMC-Pa-3, strain AUMC-Pa-3",> 128 µM
same,MIC,"[1]; read-out: Antibiotic sensibility (MIC) of clinical P. aeruginosa isolate AUMC-Pa-4, strain AUMC-Pa-4",> 128 µM
same,MIC,"[1]; read-out: Antibiotic sensibility (MIC) of clinical P. aeruginosa isolate AUMC-Pa-5, strain AUMC-Pa-5",> 128 µM
same,MIC,"[1]; read-out: Antibiotic sensibility (MIC) of clinical P. aeruginosa isolate AUMC-Pa-6, strain AUMC-Pa-6",> 128 µM
same,MIC,"[1]; read-out: Antibiotic sensibility (MIC) of clinical P. aeruginosa isolate HM-214, strain HM-214",> 128 µM
same,MIC,"[1]; read-out: Antibiotic sensibility (MIC) of clinical P. aeruginosa isolate NR-31040, strain NR-31040",> 128 µM
same,MIC,"[1]; read-out: Antibiotic sensibility (MIC) of clinical P. aeruginosa isolate NR-31041, strain NR-31041",> 128 µM
same,FICI,P. aeruginosa AUMC-Pa-2,0.188
same,FICI,P. aeruginosa AUMC-Pa-1,0.156
same,MIC,"P. aeruginosa PAO1; Pseudomonas aeruginosa, PAO1, 18 h, read-out: MICa: the MIC of antibiotics, S3 Table, antibiotic alone",> 128 µM
same,FICI,P. aeruginosa PAO1; antibiotic + 2 μM D-11,0.188
same,FICI,P. aeruginosa PAO1; antibiotic + 4 μM D-11,0.188
same,MICac: the MIC for the antibiotic in the combination,P. aeruginosa PAO1; with 2 μM D-11,32 µM
same,MICac: the MIC for the antibiotic in the combination,P. aeruginosa PAO1; with 4 μM D-11,16 µM
same,MIC,"P. aeruginosa AUMC-Pa-6; Pseudomonas aeruginosa, AUMCPA6, 18 h, read-out: MICa: MIC of the antibiotic",> 128 µM
same,FICI,"P. aeruginosa AUMC-Pa-6; strain AUMC-Pa-6, antibiotic + D-11 (MICb/MICbc 64/4)",0.313
same,MICac: MIC of the antibiotic in the combination,"P. aeruginosa AUMC-Pa-6; strain AUMC-Pa-6, with D-11 at MICbc 4, unit not given",64
same,MIC,"P. aeruginosa AUMC-Pa-3; Pseudomonas aeruginosa, AUMCPA3, 18 h, read-out: MICa: MIC of the antibiotic",> 128 µM
same,FICI,"P. aeruginosa AUMC-Pa-3; strain AUMC-Pa-3, antibiotic + D-11 (MICb/MICbc 128/4)",0.094
same,MICac: MIC of the antibiotic in the combination,"P. aeruginosa AUMC-Pa-3; strain AUMC-Pa-3, with D-11 at MICbc 4, unit not given",16
same,MIC,"P. aeruginosa AUMC-Pa-4; Pseudomonas aeruginosa, AUMCPA4, 18 h, read-out: MICa: MIC of the antibiotic",> 128 µM
same,FICI,"P. aeruginosa AUMC-Pa-4; strain AUMC-Pa-4, antibiotic + D-11 (MICb/MICbc 128/4)",0.156
same,MICac: MIC of the antibiotic in the combination,"P. aeruginosa AUMC-Pa-4; strain AUMC-Pa-4, with D-11 at MICbc 4, unit not given",16
same,MIC,"P. aeruginosa AUMC-Pa-5; Pseudomonas aeruginosa, AUMCPA5, 18 h, read-out: MICa: MIC of the antibiotic",> 128 µM
same,FICI,"P. aeruginosa AUMC-Pa-5; strain AUMC-Pa-5, antibiotic + D-11 (MICb/MICbc 64/4)",0.563
same,MICac: MIC of the antibiotic in the combination,"P. aeruginosa AUMC-Pa-5; strain AUMC-Pa-5, with D-11 at MICbc 4, unit not given",>128/128
same,FICI,P. aeruginosa HM-214,0.281
same,MIC,"P. aeruginosa ATCC27853; Pseudomonas aeruginosa, ATCC27853, 18 h, read-out: MICa: MIC of the antibiotic",> 128 µM
same,FICI,"P. aeruginosa ATCC27853; strain ATCC27853, antibiotic + D-11 (MICb/MICbc 32/4)",0.250
same,MICac: MIC of the antibiotic in the combination,"P. aeruginosa ATCC27853; strain ATCC27853, with D-11 at MICbc 4, unit not given",32
same,MIC,"P. aeruginosa NR-31041; Pseudomonas aeruginosa, NR31041, 18 h, read-out: MICa: MIC of the antibiotic",> 128 µM
same,FICI,"P. aeruginosa NR-31041; strain NR-31041, antibiotic + D-11 (MICb/MICbc 64/4)",0.125
same,MICac: MIC of the antibiotic in the combination,"P. aeruginosa NR-31041; strain NR-31041, with D-11 at MICbc 4, unit not given",16
same,MIC,"P. aeruginosa PA14; Pseudomonas aeruginosa, PA14, 18 h, read-out: MICa: MIC of the antibiotic",> 128 µM
same,FICI,"P. aeruginosa PA14; strain PA14, antibiotic + D-11 (MICb/MICbc 128/4)",0.156
same,MICac: MIC of the antibiotic in the combination,"P. aeruginosa PA14; strain PA14, with D-11 at MICbc 4, unit not given",32
same,MIC,"P. aeruginosa PAK; Pseudomonas aeruginosa, 18 h, read-out: MICa: MIC of the antibiotic",> 128 µM
same,FICI,"P. aeruginosa PAK; strain PAK, antibiotic + D-11 (MICb/MICbc 64/4)",0.188
same,MICac: MIC of the antibiotic in the combination,"P. aeruginosa PAK; strain PAK, with D-11 at MICbc 4, unit not given",32
same,MIC,"P. aeruginosa NR-31040; Pseudomonas aeruginosa, NR31040, 18 h, read-out: MICa: MIC of the antibiotic",> 128 µM
same,FICI,"P. aeruginosa NR-31040; strain NR-31040, antibiotic + D-11 (MICb/MICbc 128/4)",0.281
same,MICac: MIC of the antibiotic in the combination,"P. aeruginosa NR-31040; strain NR-31040, with D-11 at MICbc 4, unit not given",64

# From PMC8445441, “Elucidating the mechanism by which synthetic helper peptides sensitize Pseudomonas aeruginosa to multiple antibiotics” (PLoS Pathogens, 2021)
